Data taken from patent US20130253060A1, “Intramural Research Program of the National Institutes of Health, National Institute of Environmental Health Sciences (NIEHS)” (priority 2011, published 2013).
Entries after “also recorded” stand apart in the source; their conditions may differ. Read-outs that look alike come from different tables or passages of the source.

How the values were obtained:
[1] = mice; cited from earlier work
[2] = tested on: secretory phospholipase A2 (sPLA2); test: sPLA2 activity in plasma; type: in vivo, mice
Experimental: (§1) Mice were given by intraperitoneal injection (i.p.) a lethal dose of APAP (600 mg/kg in 0.45 N NaCl, pH 8.2) or the vehicle alone. Treated mice were given a single injection of 20 mg/kg, i.p., BPPA, a sPLA2 inhibitor, after a set time interval (2, 4, and 8 hours after the dose of APAP). BPPA was purchased from a commercial source (Catalog No. 53319, Sigma Aldrich, St. Louis, Mo.). All the mice were observed six times on the first day and twice daily thereafter for 14 days for any mortality. […] Plasma was obtained by centrifugation of blood samples (1000 g for 20 min) for assessment of biochemical parameters of liver injury. The remaining plasma was quick-frozen in liquid nitrogen and stored at −80° C. until further analysis.
sPLA2 activity in the plasma was measured using sPLA2 activity kit (Cayman Chemicals, Ann Arbor, Mich.) as per the manufacturer's instructions. sPLA2 activity in plasma was expressed as sPLA2 units/ml. One unit of sPLA2 hydrolyzes one μmole of substrate (diheptanoyl Thio-phosphatidylcholine) per min at 25° C. and is expressed as μmoles substrate hydrolyzed/min/ml.

[3] = tested on: Male Swiss Webster mice given a lethal dose of acetaminophen (APAP); test: Survival of mice given a lethal dose of APAP, with or without BPPA treatment; type: in vivo; details: for mortality: APAP alone
Experimental: Male Swiss Webster mice weighing between 25-30 g were obtained from Harlan Laboratories (Indianapolis, Ind.). Mice had unlimited access to rodent chow (Harlan Teklad Rat Chow No. 7001, Madison, Wis.) and water. The mice were housed over sawdust bedding free of any known chemical contaminants (Sani-chips; Harlan Teklad, Madison, Wis.) in air conditioned quarters (21±1° C.) with a 12 h photoperiod. All animal husbandry and handling conditions were as per the NIH Guide for Care and Use of Laboratory Animals. Research protocols were approved by the ULM Institutional Animal Care and Use Committee (IACUC).
as §1

[4] = tested on: plasma alanine aminotransferase (ALT); test: Plasma alanine aminotransferase (ALT) as biomarker of liver injury; type: in vivo, mice
Experimental: as §1
Plasma was separated by centrifugation of the heparinized blood. Plasma alanine aminotransferase (ALT) was measured as a biomarker of liver injury using a kit from Thermo DMA (Waltham, Mass.). The results were ascertained by light microscopic examination of liver sections stained with hematoxylin and eosin (H&E).

[5] = humans; cited from earlier work
[6] = tested on: rats receiving chlordecone (CD)+CCl4; test: Survival after chlordecone + CCl4 combination with BPPA treatment; type: in vivo; details: BPPA 20 mg/kg 1 hour after CCl4 injection; rats on chlordecone; data not shown
Experimental: A combination of two chemicals, which are known to be nontoxic individually at very low levels, is known to be highly toxic when combined in mammals. One of these is a chlorinated pesticide known as KEPONE™, which is commonly known as chlordecone. The other is the organic solvent, carbon tetrachloride (CCl4). Either chemical will be toxic if given at a sufficient dose. For example, chlordecone, administered to older rats at 120 mg/kg causes central nervous system (CNS) toxicity such as tremors, convulsions and death. CCl4 injected or given orally at 4 ml/kg causes severe liver necrosis, liver failure and death. […] Likewise, exposing rats to a single dose of 100 μl/kg CCL4, i.p. led to the classic centrilobular injury by 3 hours, which escalated to about 4 fold injury in the liver by 12 hours. However, by 24 hours, the liver injury was repaired and no liver injury was observed. In contrast, if the same dose of CCl4 was given to rats maintained on dietary 10 ppm chlordecone for 15 days, on day 16, all rats died within 3 days after injecting CCl4, which is about a 67-fold amplification of the toxicity for CCl4 (Mehendale, 1994).
Using this combination of chlordecone and CCL4, BPPA (20 mg/kg) was injected in the rats 1 hour after the injection of CCl4, and 90% of the rats receiving the chlordecone (CD)+CCl4 survived (data not shown).

[7] = tested on: mice lethally poisoned with thioacetamide; test: Rescue of mice lethally poisoned with thioacetamide by BPPA; type: in vivo; details: data not shown
Text: In addition, I have shown that sPLA2 mediates the liver injury initiated by thioacetamide, another hepatotoxicant, by showing mice lethally poisoned with thioacetamide were rescued by inhibiting sPLA2 with BPPA (data not shown).

[8] = tested on: rats maintained on dietary 10 ppm chlordecone; details: CCl4 100 μl/kg i.p. on day 16 to rats on dietary 10 ppm chlordecone for 15 days; cited from earlier work
[9] = APAP alone 600 mg/kg i.p., measured on Day 2, vs control and vehicle
[10] = BPPA 20 mg/kg 2 hours after APAP 600 mg/kg, surviving mice, over 14 days
[11] = BPPA 20 mg/kg 4 hours after APAP 600 mg/kg

With `CC(=O)Nc1ccc(O)cc1` [APAP, Acetaminophen] as the compound, how does the half-life [1] read?
Its half-life is 1 h.

And the “plasma sPLA2 enzymatic activity” value [2, 9]?
Its value is “increased”.

And the mortality ([3]; single dose 600 mg/kg i.p., no further treatment)?
The mortality was 80%.

And the mortality ([3]; at 12 hours after injection)?
Its mortality is 50%.

And the mortality ([3]; at 24 hours after injection)?
Its mortality is 80%.

What about the “plasma ALT enzymatic activity” value [4, 9] of the same compound?
Its value is “increased”.

And the half-life [5]?
Its half-life is 2.5 h.

What does the source list for `O=C(O)CC[C@@H](Cc1ccc(OCc2ccccc2)cc1)NC(=O)CCCCCCc1ccccc1` [BPPA, 5-(4-Benzyloxyphenyl)-4S-(7-phenylheptanoylamino) pentanoic acid]?
survival [6]: 90%; rescue from lethal thioacetamide poisoning [7]: rescued; mortality ([7]; mice lethally dosed with thioacetamide, treated with BPPA): less mortality; plasma sPLA2 activity [2, 10]: down to the normal values; also recorded: decreased; plasma sPLA2 level [2, 11]: decreased to about normal levels; survival ([3]; BPPA 20 mg/kg i.p. 4 hours after APAP 600 mg/kg i.p., observed 14 days): 70%; survival ([3]; BPPA 20 mg/kg i.p. 8 hours after APAP 600 mg/kg i.p., observed 14 days): 60%; cumulative mortality ([3]; at 14 days, BPPA 20 mg/kg 2 hours after acetaminophen): 10%; survival ([3]; inhibitor administered 2 to 8 hours after APAP 600 mg/kg): 60%-80; plasma ALT activity [4, 10]: down to the normal values; also recorded: decreased; plasma ALT level [4, 11]: decreased to about normal levels

For `ClC(Cl)(Cl)Cl` [CCl4, carbon tetrachloride], which “amplification of the toxicity” value [8] is on record?
Its value is roughly 67 fold.
